These results are taken from patent publication US20050025795A1, “Compounds, Compositions and methods for insect control” (The Procter & Gamble Company, priority 2003, published 2005).

Counter-ions that a name gives are not always drawn. Like-named read-outs stand apart in the source and are kept apart here. Marks after values point to notes of the source that are not given here.

In one assay the test system is roaches. It counts as in vivo, cockroaches. The procedure:
An ˜500 mL jar is coated at the top with a thin film of petroleum jelly and covered with a plastic petri dish as a lid. […] The filter paper is bent in half to form a ‘tent’, as shown, so the roaches are not forced to contact the filter paper. The lid is removed, and a compound or composition to be tested is added to the top of the paper, at the bend. The lid is replaced and the insects monitored for activity at 15, 30, 45 minutes, then 1, 2, 4 and 24 hours post exposure.
This is done by taking multiple testes and plotting them on a dose-response curve such as the GraphPad® Prism® computer program. This program interpolates to find the midpoint of any sigmoidal dose-response curve.
The data in Table 1 can graphed as a sigmoidal dose response, much the same as any other biological data. […] The mid-Point of the dose-response curve is given by the computer and used to compare potencies. […] It is also necessary to understand the range of the testing. While the lower limit is in the 1 to 3 microliter range, the upper limit is about 250 microliters. Adding more material than that to the filter paper will allow the substance to drip onto the glass, where contact with the insects might occur. […] Several compounds are tested in a 2 liter (L) jar rather than the 0.5 L jars which are the primary assay.

Assay [1] has as its system insects of the blattella species. The assay is described as follows: Direct contact spray knockdown. Type of assay: in vivo. The source says: A formula is created consisting exclusively of ethylene glycol diformate. This diformate is placed in aerosol cans and pressurized with carbon dioxide as propellant. This material, when sprayed on insects of the blattella species, results in knockdown in under 30 seconds. When administered in the vapor phase according to Example 1, in a 500 milliliter jar, 15 microliters of the formula in the vapor phase kills all the insects in one hour.
Raid (#271) Roach and Ant Killer and Treatment is purchased and repeatedly tested in the assay of Example 1, and in a direct contact test. It did knowndown both the peripleneta species (17.2+/−3.2 seconds) and the blattella species (kill time 16 seconds) when directly sprayed on the insects.

The mark [2] stands for this setting: 5 µL, ~500 mL jar, 6 insects in this jar.

On to `Cc1coc2c1CC[C@@H](C)C2` [(+)-Menthofuran, (+) menthofuran], for which the “LD50 (vapor phase) in a 2 L jar” value in the assay on roaches (2 L jar) was 15 microliters per 2 L headspace. Besides, the “Percent Dead Only at 4 hours” value in the assay on roaches (setting [2]) is 33%*; in the assay on roaches (10 µL (repeat), ~500 mL jar), 40%; in the assay with roaches (10 µL, ~500 mL jar), 100%; in the assay on roaches (15 µL, ~500 mL jar), 100%; in the assay on roaches (20 µL, ~500 mL jar) it was 100%; in the assay with roaches (33 µL, ~500 mL jar), 100%. The “Percent Dead at 24 hours” value in the assay with roaches (setting [2]) came out at 33%*; in the assay with roaches (10 µL (repeat), ~500 mL jar), 40%; in the assay with roaches (10 µL, ~500 mL jar), 80%; in the assay on roaches (15 µL, ~500 mL jar) it was 100%; in the assay on roaches (20 µL, ~500 mL jar), 100%; in the assay with roaches (33 µL, ~500 mL jar), 100%. In addition, the “Percent Distressed or Dead at 4 hours” value stood at 33%* in the assay with roaches (setting [2]); 40% in the assay on roaches (10 µL (repeat), ~500 mL jar); 100% with roaches (10 µL, ~500 mL jar); 100% with roaches (15 µL, ~500 mL jar); 100% in the assay with roaches (20 µL, ~500 mL jar); 100% in the assay on roaches (33 µL, ~500 mL jar). For the same molecule, the “LD50 (vapor phase)” value in the assay with roaches (~500 mL jar) is 7.2 microliters/500 milliliters headspace.
Regarding `CC(C)(C)OC=O` [compound 2-1, tert-butyl formate], the “24 hr LD50 (vapor phase)” value in the assay with roaches (~500 mL jar) is reported as 40 microliters per 500 milliliters headspace.
The same measure, in the same setting: the same measure for `O=COC1CCCC1` [compound 2-2, cyclopentyl formate]: 17 microliters per 500 milliliters headspace.
On to `O=COCCOC=O` [ethylene glycol diformate], for which the “Insects killed in the vapor phase” value in the assay with roaches (15 microliters of the formula, 500 milliliter jar, one hour) is on record as “all”. For the same molecule, the “LD50 (vapor phase)” value in the assay on roaches (in a 500 milliliter jar) is “approximately 7.5 microliters”. Further, the “Relative potency within the diformate ester series (in words)” value in the assay on roaches (in vivo) was “most potent compound of the series”. Also, the “Knockdown time when sprayed on insects” value in assay [1] is listed as “under 30 seconds”.
Regarding `C=CCc1ccc(O)c(OC)c1` [eugenol, reference compound], the “LD50 (vapor phase)” value in the assay with roaches (~500 mL jar) is > 300 milligrams/500 milliliters.
Consider (R) (−) carvone, for which the “Fraction of the roaches that die in 24 hrs” value in the assay with roaches (individually tested at 29 milligrams/500 milliliters, 24 hrs) is “⅕”.
